# From patent publication US10799439B2, “Coating of clay micro-tubes on surfaces of hair and natural fibers” (Louisiana Tech Research Corporation, priority 2017, dated 2020)
# Experiment: dye/drug loading of halloysite micro-tubes (TGA)
# Assay type: physicochemical
# Conditions: SDS-hydrophobized halloysite lumen
# Procedure: One example method of loading the micro-tubes with a (substantially) water soluble hair dye agent uses the dye Indigo carmine. The Indigo carmine dye is dissolved in 1 mL of DI water at a ratio of 4% by weight (i.e., 40 mg of dye) under sonication. 40 mg of halloysite is added to the dispersion and sonicated until a homogeneous dispersion is obtained. The dispersion is place under a low vacuum (e.g., at approximately 1 psi or less) for three cycles, one hour for each cycle. The halloysite is then thoroughly washed with DI water five time by centrifuging at 10,600 rcf for three minutes. The washed halloysite was then dried in a hot air oven at 60° C. This procedure produced a 6 to 8 weight percent dye loading efficiency, i.e., weight of dye with respect to the weight of clay micro-tubes. However, different procedures may be used and generally it is desirable to generate micro-tubes loaded to about 5 to 10 weight percent dye loading efficiency, but in other embodiments, the loading efficiency could be between 2 to 35 weight percent (or any sub-range in between, with one specific example being 2% to 15%).
# One example method of loading the micro-tubes with a (substantially) water insoluble hair dye agent uses the dye Lawsone. It is preferable to modify the halloysite lumen surface to allow more ready binding of nonpolar molecules. […]
compound,measurement,value
"CC1(C)C(C=C(Cl)Cl)C1C(=O)OCc1cccc(Oc2ccccc2)c1 (stereo not shown) [permethrin, Permethrin]",content in loaded nanotubes (TGA analysis),3-5 wt. %
